Results reported in the supplement of paper PMC10307832.

How the values were obtained:
Experiment in all cases: relative viability (nuclei count vs DMSO), 5 days (fraction); higher = more cells survive
Tosedostat + Pictilisib = compound: CC(C)C[C@@H](C(=O)N[C@H](C(=O)OC1CCCC1)c1ccccc1)[C@H](O)C(=O)NO [Tosedostat] + CS(=O)(=O)N1CCN(Cc2cc3nc(-c4cccc5[nH]ncc45)nc(N4CCOCC4)c3s2)CC1 [Pictilisib] (partner 1 µM)
In short: (§1)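 Relative viability equals treated-well nuclei counts divided by vehicle-well nuclei counts. Counts came from 4× images of lung cancer cell lines grown in 1536-well plates for 5 days after pin-tool dosing on the day after seeding. Dosing used one drug alone or a fixed anchor-drug dose plus five library-drug doses (not always all listed) in √10 steps, and values are medians of duplicate plates.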

[1] = compound: CC1=NN=C(O1)C2=NN=C(C=C2)N3CCC(CC3)OC4=C(C=CC(=C4)F)Cl + CS(=O)(=O)CCNCc1ccc(-c2ccc3ncnc(Nc4ccc(OCc5cccc(F)c5)c(Cl)c4)c3c2)o1 [Lapatinib] (partner 2 µM)
In short: as §1

[2] = compound: CC1=NN=C(O1)C2=NN=C(C=C2)N3CCC(CC3)OC4=C(C=CC(=C4)F)Cl + Cc1nc(NC(=O)N2CCC[C@H]2C(N)=O)sc1-c1ccnc(C(C)(C)C(F)(F)F)c1 [Alpelisib] (partner 2 µM)
In short: as §1

Tosedostat + Lapatinib = compound: CC(C)C[C@@H](C(=O)N[C@H](C(=O)OC1CCCC1)c1ccccc1)[C@H](O)C(=O)NO [Tosedostat] + CS(=O)(=O)CCNCc1ccc(-c2ccc3ncnc(Nc4ccc(OCc5cccc(F)c5)c(Cl)c4)c3c2)o1 [Lapatinib] (partner 2 µM)
In short: as §1

Cell Line | relative viability (Tosedostat + Pictilisib; first compound 0.02 µM) | relative viability (Tosedostat + Pictilisib; first compound 0.06325 µM) | relative viability (Tosedostat + Pictilisib; first compound 0.2 µM) | relative viability (Tosedostat + Pictilisib; first compound 0.6325 µM) | relative viability (Tosedostat + Pictilisib; first compound 2 µM) | relative viability ([1]; first compound 0.253 µM) | relative viability ([1]; first compound 0.8 µM) | relative viability ([1]; first compound 2.53 µM) | relative viability ([1]; first compound 8 µM) | relative viability ([2]; first compound 0.253 µM) | relative viability ([2]; first compound 0.8 µM) | relative viability ([2]; first compound 2.53 µM) | relative viability ([2]; first compound 8 µM) | relative viability (Tosedostat + Lapatinib; first compound 0.02 µM) | relative viability (Tosedostat + Lapatinib; first compound 0.06325 µM) | relative viability (Tosedostat + Lapatinib; first compound 0.2 µM) | relative viability (Tosedostat + Lapatinib; first compound 0.6325 µM) | relative viability (Tosedostat + Lapatinib; first compound 2 µM)
SK-LU-1 | 0.688 | 0.728 | 0.505 | 0.604 | 0.485 | 0.703 | 0.749 | 0.772 | 0.807 | 0.754 | 0.812 | 0.938 | 0.737 | 0.915 | 0.774 | 0.7 | 0.709 | 0.739
NCI-H650 | 0.933 | 0.736 | 0.709 | 0.696 | 0.578 | 0.999 | 0.833 | 0.839 | 0.851 | 1.17 | 0.948 | 1 | 0.986 | 1.19 | 0.996 | 0.608 | 0.775 | 0.489
LU99A | 0.343 | 0.317 | 0.295 | 0.258 | 0.221 | 1.02 | 0.952 | 0.978 | 0.816 | 0.547 | 0.526 | 0.559 | 0.495 | 1.02 | 1.08 | 0.76 | 0.813 | 0.869
NCI-H520 | 0.261 | 0.277 | 0.3 | 0.283 | 0.396 | 0.888 | 0.84 | 0.82 | 0.764 | 0.864 | 0.846 | 0.953 | 0.88 | 0.815 | 0.984 | 0.96 | 0.923 | 1.03
NCI-H661 | 0.399 | 0.444 | 0.366 | 0.432 | 0.301 | 0.541 | 0.477 | 0.542 | 0.417 | 0.73 | 0.421 | 0.629 | 0.564 | 0.428 | 0.479 | 0.449 | 0.591 | 0.425
PC-3 [JPC-3] | 0.756 | 0.771 | 0.602 | 0.576 | 0.501 | 0.404 | 0.453 | 0.445 | 0.432 | 0.915 | 0.866 | 0.914 | 0.901 | 0.445 | 0.453 | 0.432 | 0.452 | 0.428
RERF-LC-KJ | 0.463 | 0.647 | 0.45 | 0.471 | 0.433 | 0.623 | 0.545 | 0.584 | 0.57 | 0.765 | 0.695 | 0.839 | 0.781 | 0.824 | 0.908 | 0.855 | 0.821 | 0.879
NCI-H1793 | 0.484 | 0.31 | 0.507 | 0.403 | 0.329 | 0.75 | 0.688 | 0.822 | 0.581 | 0.716 | 0.773 | 0.717 | 0.559 | 0.579 | 0.73 | 0.874 | 0.82 | 0.618
NCI-H1915 | 1.24 | 0.955 | 1 | 0.815 | 0.838 | 0.431 | 0.334 | 0.401 | 0.322 | 0.506 | 0.391 | 0.437 | 0.31 | 1.08 | 0.938 | 0.947 | 0.953 | 0.956
NCI-H1299 | 0.813 | 0.77 | 0.646 | 0.485 | 0.316 | 0.737 | 0.718 | 0.752 | 0.687 | 0.939 | 0.877 | 0.971 | 0.868 | 1.02 | 0.954 | 0.96 | 0.951 | 0.892
H3255 | 0.659 | 0.45 | 0.409 | 0.42 | 0.533 | 0.24 | 0.193 | 0.266 | 0.269 | 0.562 | 0.614 | 0.633 | 0.571 | 0.262 | 0.227 | 0.224 | 0.255 | 0.253
201T | 0.669 | 0.682 | 0.788 | 0.78 | 0.762 | 0.392 | 0.471 | 0.524 | 0.435 | 0.594 | 0.614 | 0.578 | 0.563 | 1.05 | 1.06 | 1.06 | 1.09 | 1.13
NCI-H2405 | 0.578 | 0.499 | 0.478 | 0.467 | 0.445 | 0.756 | 0.809 | 0.859 | 0.754 | 0.745 | 0.778 | 0.691 | 0.828 | 1.43 | 1.06 | 0.999 | 1.02 | 0.847
HOP-62 | 0.94 | 0.676 | 0.717 | 0.487 | 0.867 | 0.799 | – | 0.523 | 0.684 | 0.791 | – | 0.609 | 0.505 | 1.08 | 0.935 | 1.08 | 0.891 | 0.983
CAL-12T | 0.471 | 0.417 | 0.422 | 0.484 | 0.423 | 0.59 | 0.565 | 0.579 | 0.425 | 1.14 | 0.871 | 0.989 | 0.877 | 0.545 | 0.7 | 0.728 | 0.669 | 0.678
NCI-H727 | 0.36 | 0.267 | 0.276 | 0.373 | 0.29 | 0.815 | 0.721 | 1.01 | 0.795 | 0.569 | 0.58 | 0.593 | 0.471 | 1.11 | 0.589 | 0.631 | 0.657 | 0.575
NCI-H1993 | 0.818 | 0.863 | 1.01 | 0.84 | 0.688 | 0.778 | 0.801 | 0.737 | 0.695 | 0.616 | 0.619 | 0.65 | 0.702 | 0.904 | 0.997 | 0.857 | 0.87 | 0.734
